Test results from US11096923B2, “Pharmaceutical composition containing polymyxin B/trimethoprim based therapeutics” (University of Rochester, priority 2016, dated 2021).
Where two headings read alike, the source gives them in different places.

Columns and labels:
S. aureus UAMS-1 = experiment: Selleck library screen in presence of sub-inhibitory polymyxin B/trimethoprim; assay type: cell-based, Staphylococcus aureus; set-up: key: Growth (+); no growth (−); settings: for S. aureus growth, 5 μM: drug 5 μM in presence of 1.2 μg ml^−1 polymyxin B/trimethoprim; for S. aureus growth, 50 μM: drug 50 μM in presence of 1.2 μg ml^−1 polymyxin B/trimethoprim
Description: To identify agents that potentiate the antimicrobial activity of polymyxin B/trimethoprim we first determined the highest concentration of the polymyxin B/trimethoprim combination that allowed growth of P. aeruginosa strain PAO1 and S. aureus strain UAMS-1.
For Selleck library screening, individual wells of 96-well microtiter plates containing 88 μl of fresh media were inoculated with approximately 10^5 CFUs of P. aeruginosa strain PAO1 or S. aureus UAMS-1. Next, 2 μl of polymyxin B/trimethoprim was added to a final concentration of 0.2 μg ml^−1 or 1.25 μg ml^−1 for PA01 and UAMS-1, respectively. Library members were then added at either 5 μM or 50 μM final concentration. Plates were incubated at 37° C. for 16 hours and hits were identified as wells with no visible growth.
To do so, 10^5 CFUs of S. aureus strain UAMS-1 were inoculated in individual wells of a microtiter plate supplemented with 1.2 μg ml^−1 of polymyxin B/trimethoprim, (0.25×MIC). Library members were added at low (5 μM) or high (50 μM) concentrations and then scored for agents that inhibited growth following overnight incubation. Such agents were expected to represent compounds that display antimicrobial activity on their own and/or that potentiate the antimicrobial activity of polymyxin B/trimethoprim.

S. aureus strain UAMS-1 = assay type: cell-based, Staphylococcus aureus; settings: 1×MIC, laser microbial growth monitor over 40 hours
Description: Spontaneous resistance to the indicated test agent(s) was measured for P. aeruginosa strain PA01 and S. aureus strain UAMS-1 using two liquid culture approaches. […] Growth was measured using the BacterioScan s216Dx laser microbial growth monitor, with optical measurements taken every 3 minutes over 40 hours. Following 40 hours, samples were plated for to measure viable colony forming units and re-tested for drug susceptibility.
To determine if these colonies represented untreated cells vs. resistant cells, 8 individual colonies from each treatment condition were randomly selected and tested for MICs.
Using an automated laser microbial growth monitor, the optical profiles of these cultures were measured continuously over time. […] Again 8 colonies were selected at random from each treatment group.

P. aeruginosa = experiment: MIC of clinical P. aeruginosa ocular isolates (antibiotic susceptibility profiles); assay type: cell-based, Pseudomonas aeruginosa; settings: Pseudomonas aeruginosa, read-out: Minimum Inhibitory Concentration
Excerpt: A series of genotyping and biological assays were used as a preliminary means to evaluate the clonality of clinical P. aeruginosa isolates collected, as follows. Genomic DNA was purified from each isolate using Qiagen DNeasy kits (Hilden, Germany) and used as a template for polymerase chain reactions to detect the presence of the virulence factors exoS, exoY, exoU, exoT, and perV using previously published primers (Table 1). See Allewelt M, Coleman F T, Grout M, Priebe G P, Pier G B. Acquisition of expression of the Pseudomonas aeruginosa ExoU cytotoxin leads to increased bacterial virulence in a murine model of acute pneumonia and systemic spread. Infection and immunity 2000; 68:3998-4004, Lomholt J A, Poulsen K, Kilian M. Epidemic population structure of Pseudomonas aeruginosa: evidence for a clone that is pathogenic to the eye and that has a distinct combination of virulence factors. Infection and immunity 2001; 69, and Ledbetter E C, Mun J J, Kowbel D, Fleiszig S M. Pathogenic phenotype and genotype of Pseudomonas aeruginosa isolates from spontaneous canine ocular infections. Investigative ophthalmology & visual science 2009; 50. […] See Institute C. Performance Standards for Antimicrobial Susceptibility Testing: Twenty-fifth Informational Supplement. Each isolate's ability to form biofilms was quantified. To do so, wells of a polystyrene plate containing 72-hour established biofilms were washed with 0.8% NaCl to remove non adherent cells and stained with crystal violet. To quantify biofilm staining, plates were washed 3 times with H2O, stain was suspended in 30% glacial acetic acid and the optical density (OD600nm) of each well was determined using an automated plate reader, as previously described. See Jacobs A C, Blanchard C E, Catherman S C, Dunman P M, Murata Y. An ribonuclease T2 family protein modulates Acinetobacter baumannii abiotic surface colonization. PloS one 2014; 9.

[1] = test system: planktonic S. aureus cells; experiment: Antimicrobial kill curves; assay type: cell-based, Staphylococcus aureus; settings: 2× MIC
Description: Overnight cultures of the indicated organism were used to inoculate (1:100 dilution) 100 ml of fresh media and grown to mid-exponential phase. […] Aliquots were taken at 1, 2, 3, 4, and 24 hours, serial diluted and plated for colony forming units.

P. aeruginosa biofilm = test system: P. aeruginosa biofilm; set-up: key: Killing (+) of established biofilms; settings: established biofilms; adenylate kinase reporter; Blanchard et al., 2016; cited from earlier work

Compound	S. aureus growth, 5 μM (S. aureus UAMS-1)	S. aureus growth, 50 μM (S. aureus UAMS-1)	start of outgrowth of treated culture (S. aureus strain UAMS-1) [h]	MIC (P. aeruginosa; P. aeruginosa ocular isolate RW01 (cornea)) [µg/mL]	MIC (P. aeruginosa; P. aeruginosa ocular isolate RW02 (cornea)) [µg/mL]	MIC (P. aeruginosa; P. aeruginosa ocular isolate RW03 (cornea)) [µg/mL]	MIC (P. aeruginosa; P. aeruginosa ocular isolate RW04 (conjunctiva)) [µg/mL]	MIC (P. aeruginosa; P. aeruginosa ocular isolate RW05 (cornea)) [µg/mL]	MIC (P. aeruginosa; P. aeruginosa ocular isolate RW06 (cornea)) [µg/mL]	MIC (P. aeruginosa; P. aeruginosa ocular isolate RW07 (cornea)) [µg/mL]	reduction in CFU at 24 hours [1] [log]	P. aeruginosa biofilm AK Signal (P. aeruginosa biofilm)
CO[C@H]1/C=C/O[C@@]2(C)Oc3c(C)c(O)c4c(O)c(c(/C=N/N5CCN(C)CC5)c(O)c4c3C2=O)NC(=O)/C(C)=C\C=C\[C@H](C)[C@H](O)[C@@H](C)[C@@H](O)[C@@H](C)[C@H](OC(C)=O)[C@@H]1C [Rifampicin, rifampicin]	−	−	8									
NC[C@H]1O[C@H](O[C@H]2[C@H](O)[C@@H](O[C@H]3O[C@H](CO)[C@@H](O)[C@H](N)[C@H]3O)[C@H](N)C[C@@H]2N)[C@H](N)C[C@@H]1O [Tobramycin, tobramycin]	+	−		0.24	0.24	0.24	0.48	0.48	0.24	0.24	6	+
